From PubChem BioAssay AID248 (DTP/NCI, 2004)
Several values for one entry are separate records, joined by “and”; a condition that tells them apart may be missing. Equal entries are not always repeated. Toxic doses and inconclusive results are not listed. No stated cut-off is given here; in the data, active means T/C of 150% or more; inactive means T/C below 125%.

System: L1210 leukemia ip in BDF1 mice, survival T/C
Experiment: NCI In Vivo Anticancer Drug Screen. Data for tumor model L1210 Leukemia (intraperitoneal) in B6D2F1 (BDF1) mice
Conditions: endpoint: mean survival time, higher = longer survival
How it was run: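 Tumor was transplanted into mice, which were then dosed with test compound or vehicle alone. Survival was recorded for each group, and the treated figure was expressed relative to the control figure.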

[1] = dose: 100.0 mg/kg/injection, schedule: Q01DX001 (ip), vehicle: carboxymethylcellulose (CMC)
[2] = dose: 100.0 mg/kg/injection, schedule: Q01DX009 (ip), vehicle: saline
[3] = dose: 200.0 mg/kg/injection, schedule: Q01DX001 (ip), vehicle: carboxymethylcellulose (CMC)
[4] = dose: 100.0 mg/kg/injection, schedule: Q04DX002 (ip), vehicle: saline with Tween-80
[5] = dose: 100.0 mg/kg/injection, schedule: Q01DX009 (ip), vehicle: saline with Tween-80
[6] = dose: 200.0 mg/kg/injection, schedule: Q01DX009 (ip), vehicle: saline with Tween-80
[7] = dose: 400.0 mg/kg/injection, schedule: Q01DX009 (ip), vehicle: saline with Tween-80
[8] = dose: 100.0 mg/kg/injection, schedule: Q01DX001 (ip), vehicle: saline
[9] = dose: 200.0 mg/kg/injection, schedule: Q01DX001 (ip), vehicle: saline
[10] = dose: 400.0 mg/kg/injection, schedule: Q01DX001 (ip), vehicle: saline
[11] = dose: 100.0 mg/kg/injection, schedule: Q04DX003 (ip), vehicle: saline with Tween-80
[12] = dose: 200.0 mg/kg/injection, schedule: Q04DX002 (ip), vehicle: saline with Tween-80
[13] = dose: 200.0 mg/kg/injection, schedule: Q04DX003 (ip), vehicle: saline with Tween-80
[14] = dose: 400.0 mg/kg/injection, schedule: Q04DX002 (ip), vehicle: saline with Tween-80
[15] = dose: 400.0 mg/kg/injection, schedule: Q04DX003 (ip), vehicle: saline with Tween-80
[16] = dose: 100.0 mg/kg/injection, schedule: Q04DX002 (ip), vehicle: Klucel (hydroxypropylcellulose) (HPC)
[17] = dose: 200.0 mg/kg/injection, schedule: Q04DX002 (ip), vehicle: Klucel (hydroxypropylcellulose) (HPC)
[18] = dose: 400.0 mg/kg/injection, schedule: Q04DX002 (ip), vehicle: Klucel (hydroxypropylcellulose) (HPC)
[19] = dose: 100.0 mg/kg/injection, schedule: Q01DX001 (ip), vehicle: saline with Tween-80
[20] = dose: 200.0 mg/kg/injection, schedule: Q01DX001 (ip), vehicle: saline with Tween-80
[21] = dose: 100.0 mg/kg/injection, schedule: Q01DX009 (ip), vehicle: Klucel (hydroxypropylcellulose) (HPC)
[22] = dose: 200.0 mg/kg/injection, schedule: Q01DX009 (ip), vehicle: Klucel (hydroxypropylcellulose) (HPC)
[23] = dose: 400.0 mg/kg/injection, schedule: Q01DX009 (ip), vehicle: Klucel (hydroxypropylcellulose) (HPC)
[24] = dose: 100.0 mg/kg/injection, schedule: Q04DX003 (ip), vehicle: saline

Measured: T/C

COc1cc(NC(=O)CN(CCCl)CCCl)cc(OC)c1OC
inactive: dose: 13.3 mg/kg/injection, schedule: Q01DX009 (ip), vehicle: carboxymethylcellulose (CMC) 116 % of control | dose: 20.0 mg/kg/injection, schedule: Q01DX009 (ip), vehicle: carboxymethylcellulose (CMC) 100 % of control | dose: 25.0 mg/kg/injection, schedule: Q01DX001 (ip), vehicle: carboxymethylcellulose (CMC) 122 % of control | dose: 30.0 mg/kg/injection, schedule: Q01DX009 (ip), vehicle: carboxymethylcellulose (CMC) 124 % of control | dose: 44.4 mg/kg/injection, schedule: Q01DX009 (ip), vehicle: carboxymethylcellulose (CMC) 123 % of control | dose: 45.0 mg/kg/injection, schedule: Q01DX009 (ip), vehicle: carboxymethylcellulose (CMC) 107 % of control | dose: 50.0 mg/kg/injection, schedule: Q01DX001 (ip), vehicle: carboxymethylcellulose (CMC) 116 % of control | dose: 66.6 mg/kg/injection, schedule: Q01DX009 (ip), vehicle: carboxymethylcellulose (CMC) 110 % of control | dose: 89.0 mg/kg/injection, schedule: Q01DX001 (ip), vehicle: carboxymethylcellulose (CMC) 112 % of control | dose: 89.0 mg/kg/injection, schedule: Q01DX001 (ip), vehicle: saline 118 % of control | [1] 119 % of control | dose: 100.0 mg/kg/injection, schedule: Q01DX009 (ip), vehicle: carboxymethylcellulose (CMC) 86 % of control | dose: 133.0 mg/kg/injection, schedule: Q01DX001 (ip), vehicle: carboxymethylcellulose (CMC) 102 % of control and 115 % of control | dose: 150.0 mg/kg/injection, schedule: Q01DX009 (ip), vehicle: carboxymethylcellulose (CMC) 88 % of control | dose: 150.0 mg/kg/injection, schedule: Q01DX009 (ip), vehicle: saline 90 % of control | [3] 114 % of control and 120 % of control | dose: 300.0 mg/kg/injection, schedule: Q01DX001 (ip), vehicle: carboxymethylcellulose (CMC) 107 % of control
active: [2] 170 % of control

Cc1ccc(-c2csc(NC(=O)CC(=O)N/N=C/c3ccc(N(CCCl)CCCl)cc3C)n2)cc1
inactive: [1] 112 % of control | [3] 88 % of control | dose: 400.0 mg/kg/injection, schedule: Q01DX001 (ip), vehicle: carboxymethylcellulose (CMC) 93 % of control

CCOC(=O)/C(O)=C\c1cc(OC)n[n+]([O-])c1Cl
inactive: dose: 25.0 mg/kg/injection, schedule: Q04DX002 (ip), vehicle: saline with Tween-80 102 % of control | dose: 50.0 mg/kg/injection, schedule: Q04DX002 (ip), vehicle: saline with Tween-80 98 % of control | [4] 102 % of control

CCOC(=O)C(C(=O)OCC)C1CCS(=O)(=O)C1 (stereo not drawn)
inactive: [5] 103 % of control | [6] 96 % of control | [7] 92 % of control

COc1ccc(C(N)=O)c(C)c1OC
inactive: dose: 50.0 mg/kg/injection, schedule: Q01DX001 (ip), vehicle: saline 98 % of control | [8] 95 % of control | [9] 95 % of control | [10] 95 % of control

O=C(Cc1ccccc1)CC(O)(C(F)(F)F)C(F)(F)F
inactive: [5] 110 % of control | [6] 100 % of control

COc1ccc(C(=O)NC(=S)Nc2ccc(CCO)cc2)cc1
inactive: [5] 98 % of control and 101 % of control | [4] 98 % of control | [11] 96 % of control | [6] 101 % of control and 102 % of control | [12] 100 % of control | [13] 94 % of control | [7] 94 % of control and 104 % of control | [14] 98 % of control | [15] 92 % of control

O=C(Nc1ccccc1-c1ccccc1)c1ccc(Cl)cc1Cl
inactive: [16] 104 % of control | [17] 93 % of control | [18] 101 % of control

Nc1nc(=S)c2nc(CNc3ccc(C(=O)NC(CCC(=O)O)C(=O)O)cc3)nnc2[nH]1 (stereo not drawn)
inactive: [19] 103 % of control | [20] 105 % of control

CC(C)(C)CC(C)(C)NCC(O)COc1ccc(C(C)(C)c2ccc(OCC(O)CNC(C)(C)CC(C)(C)C)cc2)cc1 (stereo not drawn)
inactive: dose: 3.13 mg/kg/injection, schedule: Q04DX003 (ip), vehicle: other 93 % of control | dose: 6.25 mg/kg/injection, schedule: Q01DX001 (ip), vehicle: saline sonified 97 % of control | dose: 6.25 mg/kg/injection, schedule: Q04DX003 (ip), vehicle: other 97 % of control | dose: 12.5 mg/kg/injection, schedule: Q01DX001 (ip), vehicle: saline sonified 96 % of control | dose: 12.5 mg/kg/injection, schedule: Q04DX003 (ip), vehicle: other 98 % of control | dose: 25.0 mg/kg/injection, schedule: Q04DX003 (ip), vehicle: other 93 % of control

CCOC(=O)c1ccc(N2C(C#N)c3ccccc3OC2c2ccccc2O)cc1 (stereo not drawn)
inactive: [19] 91 % of control | [5] 93 % of control and 106 % of control | [4] 95 % of control and 92 % of control | [11] 90 % of control | [20] 88 % of control | [6] 94 % of control and 90 % of control | [12] 95 % of control and 97 % of control | [13] 97 % of control | dose: 400.0 mg/kg/injection, schedule: Q01DX001 (ip), vehicle: saline with Tween-80 88 % of control | [7] 94 % of control and 87 % of control | [14] 95 % of control and 100 % of control | [15] 89 % of control

COC(=O)c1cc(=O)[nH]n1C
inactive: [21] 104 % of control | [22] 104 % of control | [23] 101 % of control

CC1=C(Sc2ccccc2)c2ccccc2C1
inactive: [8] 86 % of control | [9] 91 % of control | [10] 91 % of control

CNC(=O)Oc1ccc(Nc2ccccc2)cc1
inactive: [21] 97 % of control and 104 % of control | [16] 105 % of control and 88 % of control | [22] 100 % of control and 104 % of control | [17] 97 % of control and 98 % of control | [23] 95 % of control and 104 % of control | [18] 93 % of control and 108 % of control

O=S(=O)(Nc1ccc(Br)cc1)c1ccccc1
inactive: [5] 99 % of control | [11] 105 % of control | [6] 87 % of control | [13] 100 % of control | [7] 95 % of control | [15] 98 % of control

CCC(C)NC(=O)/C=C\C(=O)O (stereo not drawn)
inactive: [4] 95 % of control | [12] 92 % of control | [14] 100 % of control

NC(=O)C(Br)CBr (stereo not drawn)
inactive: dose: 25.0 mg/kg/injection, schedule: Q01DX009 (ip), vehicle: saline 98 % of control | dose: 50.0 mg/kg/injection, schedule: Q01DX009 (ip), vehicle: saline 95 % of control | [24] 101 % of control

CN(C)Cc1cccc([N+](=O)[O-])c1
inactive: dose: 25.0 mg/kg/injection, schedule: Q04DX003 (ip), vehicle: saline 88 % of control | dose: 50.0 mg/kg/injection, schedule: Q04DX003 (ip), vehicle: saline 98 % of control | [24] 102 % of control

CCC1CCCCC1(O)CC (stereo not drawn)
inactive: [2] 96 % of control | dose: 200.0 mg/kg/injection, schedule: Q01DX009 (ip), vehicle: saline 98 % of control

CCOC(=O)N/N=C(/C)c1cccc([N+](=O)[O-])c1
inactive: dose: 25.0 mg/kg/injection, schedule: Q01DX009 (ip), vehicle: Klucel (hydroxypropylcellulose) (HPC) 103 % of control | dose: 50.0 mg/kg/injection, schedule: Q01DX009 (ip), vehicle: Klucel (hydroxypropylcellulose) (HPC) 103 % of control | [21] 100 % of control and 111 % of control

O=C(CCl)Nc1ccc(SSc2ccc(NC(=O)CCl)cc2)cc1
inactive: dose: 50.0 mg/kg/injection, schedule: Q04DX003 (ip), vehicle: Klucel (hydroxypropylcellulose) (HPC) 95 % of control | dose: 100.0 mg/kg/injection, schedule: Q04DX003 (ip), vehicle: Klucel (hydroxypropylcellulose) (HPC) 101 % of control | dose: 200.0 mg/kg/injection, schedule: Q04DX003 (ip), vehicle: Klucel (hydroxypropylcellulose) (HPC) 101 % of control

COc1cc(/C=C/C(=O)c2ccc3c(c2)OCO3)ccc1OCc1ccccc1
inactive: dose: 100.0 mg/kg/injection, schedule: Q04DX003 (ip), vehicle: water 93 % of control | dose: 200.0 mg/kg/injection, schedule: Q04DX003 (ip), vehicle: water 91 % of control | dose: 400.0 mg/kg/injection, schedule: Q04DX003 (ip), vehicle: water 93 % of control
